Source: patent US20210261690A9, “Method of Generating Anti-Linaclotide Antibodies and Uses Thereof” (Ironwood Pharmaceuticals, Inc., priority 2018, published 2021)
Several values for one entry are separate records, joined by “and”; a condition that tells them apart may be missing. Equal values may be shown once. Bridge positions count the residues as written; N and C are the ends. Ends that are not written are not given here. Peptide text beside a SMILES is read from it.

Key:
[1] = tested on: anti-linaclotide antibodies obtained using protocol 2; experiment: Cross-reactivity competition assay; type: binding, rabbit; conditions: 6.3 μg/mL peptide, 500 ng/mL antibody from protocol 2
Source text: The cross-reactivity assay to test for cross-reactivity to the endogenous hormones, uroguanylin and guanylin, is a competition assay similar to the confirmatory assay (Example 7).
To determine if the positive control antibody produced by protocol 2 could bind either of the endogenous hormones, uroguanylin or guanylin peptides were used in place of linaclotide in a competition assay similar to the confirmatory assay described in Example 7. During development, the IC80 concentration for linaclotide, 6.3 μg/mL, was chosen as a relevant test concentration for cross-reactivity because it is on the higher end of the linear range of the inhibition curve (FIG. 18). This concentration (6.3 μg/mL) is approximately 10,000 times the systemic circulating levels of uroguanylin and guanylin. A non-related peptide, C-type natriuretic peptide (CNP), was added as a negative control in this assay.

[2] = tested on: rabbit anti-linaclotide antibody; experiment: Electrochemiluminescence bridging assay, specificity (cross-reactivity); type: binding; conditions: individual human serum
Procedure: The electrochemiluminescence assay was used as a validation of a method to detect anti-linaclotide antibodies in human serum using a MSD electrochemiluminescence protocol. Low positive control (LPC), high positive control (HPC), relative light units (RLU), coefficient of variation (CV) and confirmation cut points were determined using MSD procedures. The positive control antibodies used were the antibodies harvested from protocol 2.
The assay is an immunogenicity bridging-based assay developed on MesoScale Discovery Electrochemiluminescence (ECL) technology. It is performed by first mixing a biotinylated-linaclotide analog, a sulfotag-labeled linaclotide analog, and the clinical sample together in a multi-well plate. The presence of anti-linaclotide antibodies in the clinical sample forms an immune complex with a biotin-labeled linaclotide analog and a sulfotag-labeled linaclotide analog. The immune complex is subsequently captured on a streptavidin coated MesoScale Discovery multi-well plate followed by a wash step. The captured immune complex is then detected by electrochemiluminescence generated by the sulfotag-labeled linaclotide portion of the immune complex. The signal generated by the sample is then compared to a pre-determined screening cut point to determine if the sample is positive for the presence of anti-linaclotide antibodies. Samples that are determined to be positive are subjected to a second immunogenicity confirmation assay which is performed by mixing a biotinylated-linaclotide analog, a sulfotag-labeled linaclotide analog, the clinical sample, and unlabeled linaclotide together in a multi-well plate. The immune complex is subsequently captured on a streptavidin-coated MesoScale Discovery multi-well plate followed by a wash step. The captured immune complex is then detected by electrochemiluminescence generated by the sulfotag-labeled linaclotide portion of the immune complex. The signal generated by the sample is then compared to a pre-determined confirmation assay cut point to determine if the sample is positive for the presence of anti-linaclotide antibodies. Samples that are confirmed positive by this assay are subsequently tested at different dilutions to determine the titer of the anti-linaclotide antibody.
Specificity (cross-reactivity) of the assay was assessed by spiking ten drug-naive individual human serum samples containing rabbit anti-linaclotide antibody at the HPC (500 ng/mL) and the screening LPC (44 ng/mL) levels with 10 μg/mL Uroguanylin or Guanylin. At the same time, ten replicates of the antibody-spiked samples (without Uroguanylin or Guanylin) at each level were included to establish the % Inhibition. The following formula was used to calculate the % Inhibition for each individual:
% Inhibition=[(1−(Drug with Antibody/Antibody alone)]*100

[3] = tested on: antibody produced by protocol 1; experiment: Direct-binding ELISA for cross-reactivity with immobilized biotinylated peptides; parameters: species or system rabbit
Procedure: To further characterize the interactions between the positive control antibody and the cross-reacting peptides, a direct-binding ELISA experiment was conducted in which varying concentrations of biotinylated peptides (linaclotide, uroguanylin, and negative control parathyroid hormone [PTH]) were immobilized on the plate for antibody capture. The assay was performed using either sera from protocol 1 or anti-uroguanylin serum (Abcam ab52806) in ELISA buffer; no adequate control antibody to guanylin is available. HRP-anti-rabbit secondary antibody was used for the detection of anti-linaclotide antibodies, and HRP-anti-mouse secondary antibody was used for the detection of anti-uroguanylin antibodies from the antiserum. […] The signal for uroguanylin binding was approximately 15% of the signal obtained for linaclotide under the same conditions.

[4] = tested on: antibody obtained from protocol 2; experiment: Confirmatory assay (ELISA bridging assay with linaclotide competition); type: binding, rabbit; conditions: 500 ng/mL antibody from protocol 2, 300 ng/mL SEQ ID NO: 8, 312 ng/mL SEQ ID NO: 9
Source text: The initial bridging assay was developed using a biotinylated form of linaclotide, SEQ ID NO: 8, for antibody capture, and the linaclotide-tracer peptide, SEQ ID NO: 9, for detection on a streptavidin plate. […] A sheep anti-fluorescein antibody conjugated to HRP was used for detection of SEQ ID NO: 9 to enhance the signal over direct detection of the fluorescein moiety by ultraviolet-visible spectroscopy (UV/Vis). In this initial assay, the capture peptide (biotin-linaclotide), detection peptide (fluorescein-linaclotide), and anti-linaclotide antibodies were first incubated overnight in solution to allow complexes to form. These complexes were captured on a streptavidin plate, which was then washed. Bound complexes were detected with an HRP-conjugated anti-fluorescein antibody followed by addition of the HRP substrate and colorimetric detection.
The confirmatory assay was developed as a variation of the ELISA-based bridging assay (Example 6) with competition using fluorescein for detection. The peptide antibody incubation mixture was spiked with native linaclotide, and the concentrations of positive control antibody, capture peptide, and detection peptide were kept constant.
A binding curve was generated using Prism® v.

[5] = tested on: positive control antibody produced by protocol 1; experiment: Bridging cross-reactivity assay with fluorescein-modified detection peptides; type: binding, rabbit; conditions: 500 ng/mL antibody, 312 ng/mL SEQ ID NO: 8, 312 and 625 ng/mL fluorescein-modified peptides
Source text: A bridging cross-reactivity assay similar to the screening assay (Example 6) was set up to detect direct binding of the positive control antibody to both linaclotide and uroguanylin or guanylin. For use as detection peptides, uroguanylin and guanylin were synthesized with fluorescein coupled to their N terminus (SEQ ID NO: 10 and SEQ ID NO: 12, respectively; Table 4). This cross-reactivity assay used SEQ ID NO: 8 (Table 4) as the capture peptide, just as in the screening assay, and either SEQ ID NO: 10 (for uroguanylin) or SEQ ID NO: 12 (for guanylin) as the detection peptide. Sheep anti-fluorescein HRP-conjugated antibody was used for detection of positive control antibodies. The antibody must directly bind both the linaclotide-capture peptide and uroguanylin or guanylin to generate a signal in the assay (FIG. 21). A fluorescein-modified PGC1a peptide was purchased for use as a negative control for cross-reactivity.
This cross-reactivity assay was performed using 500 ng/mL of positive control antibody produced by protocol 1, 312 ng/mL of SEQ ID NO: 8, and 2 concentrations (312 and 625 ng/mL) of fluorescein-modified peptides for each set of reactions. […] Positive control antibody is excluded from blank incubations.

[6] = Phase 2b studies for CC, four-week treatment period; cited from earlier work
[7] = after oral administration at therapeutic dose levels; cited from earlier work
[8] = tested on: positive control antibody; experiment: Direct-binding ELISA of linaclotide-tracer peptide; parameters: species or system rabbit; conditions: anti-fluorescein antibody conjugated to HRP for detection
Source text: Anti-fluorescein antibody conjugated to HRP was used to detect the linaclotide-tracer peptide, SEQ ID NO: 9. The signal increased with increasing antibody concentration.

In the case of “PGTC1 EIC2 AYAAC1 TGC2 (PGTCEICAYAACTGC; disulfide 4-12, 7-15; not fully specified (N-terminus); printed as PGTC1 EIC2 AYAAC1 TGC2) [Guanylin, endogenous hormone]”, the “recognition by antibodies produced by protocol 2 (inhibition versus negative control CNP)” value [1] was “not recognized by antibodies produced by protocol 2”, the “Antibody and 10 μg/mL Uroguanylin (signal)” value ([2]; Table 7 (Guanylin), antibody at the HPC (500 ng/mL)) was 225 and 199 and 179 and 177 and 174 and 181 and 155 and 135 and 130 and 239 and the “Antibody and 10 μg/mL Uroguanylin (signal)” value ([2]; Table 7 (Guanylin), antibody at the Screening LPC (44.0 ng/mL)) was 71 and 57 (2×) and 55 (2×) and 54 and 53 (2×) and 63 and 51. The “Percent Inhibition” value ([2]; Table 7 (Guanylin, 10 μg/mL), antibody at the HPC (500 ng/mL)) was 0.0% and 3.2% and 7.6% and −3.4% and 2.2% and −7.8% and −3.9% and −1.9% and −7.1% and −4.5% and the “Percent Inhibition” value ([2]; Table 7 (Guanylin, 10 μg/mL), antibody at the Screening LPC (44.0 ng/mL)) was −7.1% and 8.2% and 3.4% and 12.5% and 11.0% and 7.4% and 6.4% and 3.6% and 0.1% and 7.0%.
For “NNDC1 ELC2 VAVAC1 TGC2 L (NNDCELCVAVACTGCL; disulfide 4-12, 7-15; not fully specified (N-terminus); printed as NNDC1 ELC2 VAVAC1 TGC2 L) [Uroguanylin, endogenous hormone]”, the “recognition by antibodies produced by protocol 2 (inhibition versus negative control CNP)” value [1] was “not recognized by antibodies produced by protocol 2”, the “signal for binding relative to the signal obtained for linaclotide” value ([3]; 60 ng/mL antibody of protocol 1) was “approximately 15%” and the “binding of antibody produced by protocol 1” value ([3]; 60 ng/mL antibody of protocol 1, varying concentrations of biotinylated peptide, FIG. 20) was “binds to uroguanylin in a concentration-dependent manner”. The “Percent Inhibition” value ([2]; 10 μg/mL Uroguanylin, antibody at the HPC (500 ng/mL)) was 10.7% and 18.6% and 9.5% and −11.3% and 10.1% and −11.7% and −1.3% and −0.5% and 0.6% and 1.9%, the “Percent Inhibition” value ([2]; 10 μg/mL Uroguanylin, antibody at the Screening LPC (44.0 ng/mL)) was −6.6% and 18.4% and 15.7% and 4.8% and −3.8% and −1.5% and 3.2% and 5.1% and −0.5% and −4.1% and the “Antibody and 10 μg/mL Uroguanylin (signal)” value ([2]; antibody at the HPC (500 ng/mL)) was 147 and 151 and 145 and 164 and 162 and 185 and 180 (2×) and 169 and 157. For the same compound, the “Antibody and 10 μg/mL Uroguanylin (signal)” value ([2]; antibody at the Screening LPC (44.0 ng/mL)) was 59 (2×) and 39 and 44 and 52 (4×) and 51 and 53.
In the case of C[C@@H]1NC(=O)[C@@H]2CCCN2C(=O)[C@H](CC(N)=O)NC(=O)[C@@H]2CSSC[C@H](N)C(=O)N[C@H]3CSSC[C@H](NC1=O)C(=O)N[C@@H]([C@@H](C)O)C(=O)NCC(=O)N[C@H](C(=O)N[C@@H](Cc1ccc(O)cc1)C(=O)O)CSSC[C@H](NC(=O)[C@H](Cc1ccc(O)cc1)NC(=O)[C@H](CCC(=O)O)NC3=O)C(=O)N2 [Linaclotide, C1C2EYC3C1NPAC2TGC3Y] (H-CCEYCCNPACTGCY-OH; disulfide 1-6, 2-10, 5-13), the “50% inhibitory concentration (IC50)” value [4] was 1.4 µg/mL, the “80% inhibitory concentration (IC80)” value [4] was 6.3 µg/mL and the inhibition of binding [1] was “approximately 60%”. For the same compound, the “signal in the direct-binding assay for cross-reactivity” value [5] was “Only linaclotide was able to generate a positive signal”, the “effect on constipation, abdominal discomfort and bloating” value [6] was “reduced constipation, abdominal discomfort, and bloating” and the levels seen systemically [7] was “no detectable levels”.
For “Fluorescein-C1 C2 EYC3 C1 NPAC2 TGC3 Y [SEQ ID NO: 9]”, the “binding to the positive control antibody” value [8] was “confirmed”.
